According to the supplement of paper PMC8882468:

What was measured:
Test in all cases: CTG-3D luminescence at 96 h relative to day-0 seeding control (ratio to day 0); higher = more growth / less cytotoxicity; PDxO 3D drug screen, 96 h, CTG-3D normalised to day-0 seeding control.
HCI-003.E2 = tested on: HCI-003.E2 (organoid from an ER-positive breast cancer xenograft)
HCI-005.E2 = tested on: HCI-005.E2 (organoid from a breast cancer xenograft with a HER2-positive history)
HCI-015 = tested on: HCI-015 (organoid from a triple-negative breast cancer xenograft)
HCI-016 = tested on: HCI-016 (organoid from a triple-negative breast cancer xenograft)
HCI-019 = tested on: HCI-019 (organoid from a triple-negative breast cancer xenograft)
HCI-025 = tested on: HCI-025 (organoid from a breast cancer xenograft)

CCN1CCN(Cc2ccc(Nc3ncc(F)c(-c4cc(F)c5nc(C)n(C(C)C)c5c4)n3)nc2)CC1 [abemaciclib]
CTG-3D luminescence at 96 h
Conditions	12.5 pM	0.00025 µM	0.005 µM	0.1 µM	1 µM	10 µM	100 µM	625 fM
HCI-003.E2	2.17	2.14	2.02	2.27	1.98	0.491	0.00596	1.87
HCI-005.E2	1.99	2.57	2.09	1.96	1.61	1.43	0.00876	2.12

CTG-3D luminescence at 96 h
Conditions	12.5 pM	0.00025 µM	0.005 µM	0.1 µM	1 µM	10 µM	100 µM	625 fM
HCI-015, days in culture: 172	2.01	1.6	1.87	1.21	1.52	1.06	0.0103	1.19
HCI-015, days in culture: 191	1.17	1.4	1.23	1.15	1.45	1.09	0.0126	1.07
HCI-015, days in culture: 218	2.17	1.65	1.7	1.63	1.48	1.23	0.0151	1.79
HCI-016, days in culture: 153	2.82	2.09	2.87	1.71	1.14	0.355	0.0128	2.64
HCI-016, days in culture: 172	2.12	1.72	1.43	1.67	1.25	0.322	0.0115	1.34
HCI-016, days in culture: 190	1.98	1.4	1.32	1.35	1.26	0.196	0.00813	1.43
HCI-016, days in culture: 199	1.89	1.75	2.03	1.74	1.21	0.0238	0.00916	1.85
HCI-019, days in culture: 110	2.26	1.44	1.96	2.43	1.42	0.433	0.016	2.64
HCI-019, days in culture: 131	2.45	3.28	2.99	4.2	2.75	1.9	0.0216	2.87
HCI-019, days in culture: 152	3.44	2.78	2.45	2.58	2.13	0.0403	0.012	2.48
HCI-025, days in culture: 172	3.01	1.55	3.2	2.1	2.55	1.91	0.0181	2.18
HCI-025, days in culture: 209	2.03	1.8	1.98	2.2	2.46	1.27	0.0124	1.49
HCI-025, days in culture: 218	1.37	1.71	1.83	1.55	1.46	1.84	0.0142	1.33

C=CCn1c(=O)c2cnc(Nc3ccc(N4CCN(C)CC4)cc3)nc2n1-c1cccc(C(C)(C)O)n1 [adavosertib]
CTG-3D luminescence at 96 h
Conditions	12.5 pM	0.00025 µM	0.005 µM	0.1 µM	1 µM	10 µM	100 µM	625 fM
HCI-003.E2	2.18	2.35	2.25	2.28	1.54	0.668	0.388	2.01
HCI-005.E2	1.7	1.72	2.03	2.09	1.11	0.745	0.376	1.73

CTG-3D luminescence at 96 h
Conditions	12.5 pM	0.00025 µM	0.005 µM	0.1 µM	1 µM	10 µM	100 µM	625 fM
HCI-015, days in culture: 172	2.15	2.15	2.3	1.04	1.39	0.498	0.139	2.33
HCI-015, days in culture: 191	2.26	1.49	1.67	0.981	0.612	0.246	0.0546	1.6
HCI-015, days in culture: 218	1.97	1.76	1.56	1.43	0.699	0.252	0.0554	1.82
HCI-016, days in culture: 153	3.14	2.15	2.59	2.27	0.264	0.0723	0.0508	3.11
HCI-016, days in culture: 172	2.14	1.63	1.55	1.14	0.176	0.0497	0.0492	1.62
HCI-016, days in culture: 190	1.64	1.28	1.36	0.602	0.0834	0.0505	0.0792	1.02
HCI-016, days in culture: 199	1.57	1.35	1.53	1.52	0.172	0.0306	0.0372	1.43
HCI-019, days in culture: 110	2.05	1.58	1.23	1.52	0.377	0.536	0.502	2.37
HCI-019, days in culture: 131	2.63	3.93	2.52	2.25	0.386	0.381	0.4	3.56
HCI-019, days in culture: 152	2.43	2.43	3.28	1.42	0.511	0.452	0.519	2.53
HCI-025, days in culture: 172	2.76	1.83	3.85	2	1.8	0.188	0.128	1.79
HCI-025, days in culture: 209	1.68	1.93	1.69	1.36	1.03	0.124	0.157	2.05
HCI-025, days in culture: 218	1.7	1.86	1.94	1.75	1.05	0.215	0.0695	1.86

CC[C@H](NC(=O)[C@H](C)NC)C(=O)N1C[C@@H](O)C[C@H]1Cc1c(-c2[nH]c3cc(F)ccc3c2C[C@@H]2C[C@H](O)CN2C(=O)[C@H](CC)NC(=O)[C@H](C)NC)[nH]c2cc(F)ccc12 [birinapant]
CTG-3D luminescence at 96 h
Conditions	12.5 pM	0.00025 µM	0.005 µM	0.1 µM	1 µM	10 µM	100 µM	625 fM
HCI-003.E2	2.21	2.35	2.12	2.07	1.98	2.07	1.08	2.08
HCI-005.E2	1.74	1.66	1.74	1.77	1.79	1.51	1.29	1.76

CTG-3D luminescence at 96 h
Conditions	12.5 pM	0.00025 µM	0.005 µM	0.1 µM	1 µM	10 µM	100 µM	625 fM
HCI-015, days in culture: 172	2.01	1.64	0.598	0.172	0.485	0.234	0.0277	1.3
HCI-015, days in culture: 191	0.803	0.19	0.16	0.126	0.32	0.224	0.0253	0.41
HCI-015, days in culture: 218	1.68	0.775	0.248	0.111	0.125	0.185	0.0267	1.8
HCI-016, days in culture: 153	2.99	2.23	2.64	2.39	2.94	2.86	0.41	2.37
HCI-016, days in culture: 172	2.25	1.67	1.82	1.23	1.56	1.24	0.122	1.58
HCI-016, days in culture: 190	1.66	1.27	1.52	1.09	1.38	1.36	0.309	0.99
HCI-016, days in culture: 199	1.54	1.36	1.44	1.52	1.54	1.23	0.204	1.7
HCI-019, days in culture: 110	1.9	2.21	1.18	0.993	0.634	1.01	0.351	1.87
HCI-019, days in culture: 131	2.64	3.89	2.09	3.03	1.34	2.65	0.638	3.16
HCI-019, days in culture: 152	2.72	2	2.1	1.49	0.853	1.05	0.336	1.84
HCI-025, days in culture: 172	2.24	1.37	1.16	0.15	0.319	0.166	0.0157	1.82
HCI-025, days in culture: 209	1.87	1.95	1.01	0.628	0.388	0.374	0.241	1.9
HCI-025, days in culture: 218	1.84	1.78	1.79	1.23	0.859	0.811	0.542	1.83

NC1(C(=O)N[C@@H](CCO)c2ccc(Cl)cc2)CCN(c2nc[nH]c3nccc2-3)CC1 [capivasertib]
CTG-3D luminescence at 96 h
Conditions	12.5 pM	0.00025 µM	0.005 µM	0.1 µM	1 µM	10 µM	100 µM	625 fM
HCI-003.E2	2.4	2.22	2.03	1.76	0.832	0.479	0.0376	2.12
HCI-005.E2	1.64	1.67	1.86	2.16	1.02	0.59	0.467	1.73

CTG-3D luminescence at 96 h
Conditions	12.5 pM	0.00025 µM	0.005 µM	0.1 µM	1 µM	10 µM	100 µM	625 fM
HCI-015, days in culture: 172	2.34	2.2	2.33	1.49	1.2	0.92	0.424	2.15
HCI-015, days in culture: 191	2.07	1.39	1.53	1.06	1.24	0.533	0.257	1.27
HCI-015, days in culture: 218	1.47	1.49	1.11	1.59	0.974	0.878	0.315	1.71
HCI-016, days in culture: 153	3.06	1.93	2.64	2.32	2.43	1.43	0.426	2.85
HCI-016, days in culture: 172	2.38	1.35	1.88	1.56	1.72	1.44	0.453	1.75
HCI-016, days in culture: 190	1.81	1.24	1.5	0.925	1.13	1.1	0.565	1.47
HCI-016, days in culture: 199	1.58	1.48	1.5	1.6	1.44	0.914	0.407	1.79
HCI-019, days in culture: 110	1.22	1.74	1.4	1.97	0.842	1.18	0.332	1.92
HCI-019, days in culture: 131	2.99	3.67	2.98	3.31	1.45	1.63	0.521	4.08
HCI-019, days in culture: 152	2.96	2.9	2.96	1.68	0.946	0.895	0.274	2.6
HCI-025, days in culture: 172	2.76	1.4	3.17	1.35	1.43	0.474	0.354	2.57
HCI-025, days in culture: 209	1.74	1.99	1.44	0.818	0.472	0.37	0.266	1.74
HCI-025, days in culture: 218	1.88	2.08	1.82	1.2	0.565	0.592	0.288	1.69

O=C(O)C1(C(=O)O)CCC1.[NH2-].[NH2-].[Pt+2] [carboplatin]
CTG-3D luminescence at 96 h
Conditions	12.5 pM	0.00025 µM	0.005 µM	0.1 µM	1 µM	10 µM	100 µM	625 fM
HCI-003.E2	2.12	2.49	2.22	2.23	2.32	2.35	1.65	2.11
HCI-005.E2	1.69	2.11	1.73	1.87	1.51	1.24	0.225	1.47

CTG-3D luminescence at 96 h
Conditions	12.5 pM	0.00025 µM	0.005 µM	0.1 µM	1 µM	10 µM	100 µM	625 fM
HCI-015, days in culture: 172	2.56	2.15	2.48	1.49	2.05	0.715	0.354	2.54
HCI-015, days in culture: 191	2.21	1.24	1.47	1.04	1.4	0.766	0.228	1.15
HCI-015, days in culture: 218	1.26	1.7	1.7	1.77	1.54	0.685	0.229	1.75
HCI-016, days in culture: 153	3.27	2.03	2.66	2.2	2.81	0.866	0.0935	2.64
HCI-016, days in culture: 172	2.27	2.25	1.89	1.3	1.71	0.761	0.139	1.78
HCI-016, days in culture: 190	1.49	1.29	1.53	1.17	1.46	0.642	0.12	1.18
HCI-016, days in culture: 199	1.55	1.29	1.34	1.29	1.64	0.782	0.081	1.86
HCI-019, days in culture: 110	1.39	1.76	1.53	2.63	1.29	1.16	0.26	1.97
HCI-019, days in culture: 131	2.21	3.56	2.77	2.39	2.12	1.23	0.234	3.26
HCI-019, days in culture: 152	2.94	2.48	2.23	1.4	1.99	1.4	0.291	1.64
HCI-025, days in culture: 172	2.56	1.71	3.2	1.24	2.75	1.11	0.15	1.35
HCI-025, days in culture: 209	1.97	1.73	1.67	1.49	1.79	0.85	0.119	1.86
HCI-025, days in culture: 218	1.73	1.73	1.72	2.01	1.43	1.14	0.203	1.73
